Results published in the NIST ThermoML archive (doi:10.1016/j.jct.2017.12.023).

Assay: xn = mol fraction of the nth substance listed
Settings: 100 kPa, Liquid; for viscosity: Concentric cylinders viscometry; for mass density: Vibrating tube method

CCOS(=O)(=O)[O-].CCn1cc[n+](C)c1 [1-ethyl-3-methylimidazolium ethyl sulfate] + CCCCCCO
Settings	mass density [kg/m3]	viscosity [mPa·s]
288.15 K, x1 = 0.1016	883.62	9.353
288.15 K, x1 = 0.2016	938.59	13.3
288.15 K, x1 = 0.3005	988.2	18.78
288.15 K, x1 = 0.3989	1033.38	26.42
288.15 K, x1 = 0.4975	1075.01	36.71
288.15 K, x1 = 0.5956	1113.22	50.2
288.15 K, x1 = 0.6647	1138.48	61.57
288.15 K, x1 = 0.7947	1182.52	90.12
288.15 K, x1 = 0.897	1214.13	117.32
288.15 K, x1 = 1	1243.07	155.55
293.15 K, x1 = 0.1016	880.04	7.885
293.15 K, x1 = 0.2016	935.01	11.15
293.15 K, x1 = 0.3005	984.62	15.65
293.15 K, x1 = 0.3989	1029.83	21.79
293.15 K, x1 = 0.4975	1071.48	29.93
293.15 K, x1 = 0.5956	1109.72	40.24
293.15 K, x1 = 0.6647	1135	48.86
293.15 K, x1 = 0.7947	1179.07	69.76
293.15 K, x1 = 0.897	1210.7	90.21
293.15 K, x1 = 1	1239.66	117.88
298.15 K, x1 = 0.1016	876.47	6.825
298.15 K, x1 = 0.2016	931.44	9.64
298.15 K, x1 = 0.3005	981.06	13.44
298.15 K, x1 = 0.3989	1026.28	18.54
298.15 K, x1 = 0.4975	1067.96	25.04
298.15 K, x1 = 0.5956	1106.23	33.31
298.15 K, x1 = 0.6647	1131.53	40.06
298.15 K, x1 = 0.7947	1175.63	55.99
298.15 K, x1 = 0.897	1207.28	71.04
298.15 K, x1 = 1	1236.27	91.26
303.15 K, x1 = 0.1016	872.88	5.918
303.15 K, x1 = 0.2016	927.87	8.313
303.15 K, x1 = 0.3005	977.51	11.56
303.15 K, x1 = 0.3989	1022.76	15.8
303.15 K, x1 = 0.4975	1064.47	21.17
303.15 K, x1 = 0.5956	1102.76	27.85
303.15 K, x1 = 0.6647	1128.08	33.14
303.15 K, x1 = 0.7947	1172.21	45.6
303.15 K, x1 = 0.897	1203.87	57.05
303.15 K, x1 = 1	1232.87	72.1
308.15 K, x1 = 0.1016	869.3	5.153
308.15 K, x1 = 0.2016	924.31	7.242
308.15 K, x1 = 0.3005	973.98	10.01
308.15 K, x1 = 0.3989	1019.25	13.6
308.15 K, x1 = 0.4975	1060.99	18.02
308.15 K, x1 = 0.5956	1099.3	23.46
308.15 K, x1 = 0.6647	1124.65	27.77
308.15 K, x1 = 0.7947	1168.81	37.67
308.15 K, x1 = 0.897	1200.48	46.51
308.15 K, x1 = 1	1229.49	57.98
313.15 K, x1 = 0.1016	865.72	4.475
313.15 K, x1 = 0.2016	920.76	6.296
313.15 K, x1 = 0.3005	970.44	8.67
313.15 K, x1 = 0.3989	1015.75	11.7
313.15 K, x1 = 0.4975	1057.52	15.4
313.15 K, x1 = 0.5956	1095.87	19.84
313.15 K, x1 = 0.6647	1121.24	23.34
313.15 K, x1 = 0.7947	1165.42	31.23
313.15 K, x1 = 0.897	1197.11	38.33
313.15 K, x1 = 1	1226.13	47.26
318.15 K, x1 = 0.1016	862.11	3.975
318.15 K, x1 = 0.2016	917.2	5.593
318.15 K, x1 = 0.3005	966.93	7.683
318.15 K, x1 = 0.3989	1012.26	10.3
318.15 K, x1 = 0.4975	1054.07	13.44
318.15 K, x1 = 0.5956	1092.45	17.17
318.15 K, x1 = 0.6647	1117.84	20.06
318.15 K, x1 = 0.7947	1162.05	26.51
318.15 K, x1 = 0.897	1193.76	32.18
318.15 K, x1 = 1	1222.79	39.25
323.15 K, x1 = 0.1016	858.5	3.566
323.15 K, x1 = 0.2016	913.65	4.959
323.15 K, x1 = 0.3005	963.42	6.841
323.15 K, x1 = 0.3989	1008.79	9.127
323.15 K, x1 = 0.4975	1050.64	11.85
323.15 K, x1 = 0.5956	1089.05	14.98
323.15 K, x1 = 0.6647	1114.46	17.41
323.15 K, x1 = 0.7947	1158.7	22.64
323.15 K, x1 = 0.897	1190.42	27.41
323.15 K, x1 = 1	1219.46	32.94
